In PubChem BioAssay (NCI):
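Following 48 hours of exposure in 96-well plates, responses at five concentrations were used to interpolate endpoints linearly. TGI is the concentration that stops growth completely.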

Legend:
Experiment in all cases: NCI-60 cell line screen, 48 h
A498 renal = tested on: A498 renal
M14 melanoma = tested on: M14 melanoma
SW-620 colon = tested on: SW-620 colon
UACC-62 melanoma = tested on: UACC-62 melanoma
MALME-3M melanoma = tested on: MALME-3M melanoma
RXF 393 renal = tested on: RXF 393 renal
MOLT-4 leukemia = tested on: MOLT-4 leukemia
BT-549 breast = tested on: BT-549 breast
EKVX NSCLC = tested on: EKVX NSCLC
K-562 leukemia = tested on: K-562 leukemia
SK-MEL-5 melanoma = tested on: SK-MEL-5 melanoma
HT29 colon = tested on: HT29 colon
DU-145 prostate = tested on: DU-145 prostate
KM12 colon = tested on: KM12 colon
HOP-92 NSCLC = tested on: HOP-92 NSCLC
NCI-H226 lung = tested on: NCI-H226 lung
HL-60(TB) leukemia = tested on: HL-60(TB) leukemia
PC-3 prostate = tested on: PC-3 prostate
OVCAR-8 ovarian = tested on: OVCAR-8 ovarian
SR leukemia = tested on: SR leukemia

| SMILES | TGI (A498 renal) [µM] | TGI (M14 melanoma) [µM] | TGI (SW-620 colon) [µM] | TGI (UACC-62 melanoma) [µM] | TGI (MALME-3M melanoma) [µM] | TGI (RXF 393 renal) [µM] | TGI (MOLT-4 leukemia) [µM] | TGI (BT-549 breast) [µM] | TGI (EKVX NSCLC) [µM] | TGI (K-562 leukemia) [µM] | TGI (SK-MEL-5 melanoma) [µM] | TGI (HT29 colon) [µM] | TGI (DU-145 prostate) [µM] | TGI (KM12 colon) [µM] | TGI (HOP-92 NSCLC) [µM] | TGI (NCI-H226 lung) [µM] | TGI (HL-60(TB) leukemia) [µM] | TGI (PC-3 prostate) [µM] | TGI (OVCAR-8 ovarian) [µM] | TGI (SR leukemia) [µM] |
| --- | --- | --- | --- | --- | --- | --- | --- | --- | --- | --- | --- | --- | --- | --- | --- | --- | --- | --- | --- | --- |
| Nc1nc(Cl)c2ncn(Cc3ccc(CCl)cc3)c2n1 | 84.6 | 37.7 | 13.8 | 8.18 | 27.3 | 7.26 | > 100 | 24.5 | 7.22 | > 100 | 31 | 27.6 | 19.5 | 22.9 | > 100 | 37.1 | > 100 | 25 | 32.8 | 9.37 |
| O=C1CC(O)c2c(Br)sc(Br)c21 (stereo not given) | 39.6 | 28.8 | 4.53 | 26.3 | 32.9 | 5.51 | 4.61 | 63.1 | 27.7 | 8.3 | 34.5 | 43.1 | 22.2 | 20.8 | 43.6 |  | 14.9 | 25.9 | 24.1 | 29.6 |
| CCN1CCN(c2ccc(Nc3ccnc4ccc5c(nnn5C)c34)cc2)CC1 | 29.5 | 23.9 | 19 | 27.1 | 23.6 | 23.4 | 35.1 | 36.3 | 43.9 | 28.2 | 23 | 72.4 | 18.3 | 12.4 | 21.8 |  | 25.9 | 17.7 | 40.8 | 15.8 |
| c1ccc2c(c1)nc1n2CCCn2ccnc2-1 | > 100 | > 100 | > 100 | > 100 | > 100 | > 100 | > 100 | > 100 | > 100 | > 100 | > 100 | > 100 | > 100 | > 100 | > 100 | > 100 | 0.597 | > 100 | > 100 | > 100 |
| Cc1nc2sc3ccccc3n2c(=O)c1N=Nc1ccc(Br)cc1 | > 100 | > 100 | > 100 | > 100 | > 100 | > 100 | > 100 | > 100 | > 100 | > 100 | > 100 | > 100 | > 100 | > 100 | > 100 | > 100 | > 100 | > 100 | > 100 | > 100 |
| COc1cc(C)c2c(=O)c3ccccc3n(C)c2c1 | 56.1 | 60.8 | > 100 | 39.2 | 73.2 | 40.4 | > 100 | 52.7 | 91.9 | 39.1 |  | 29 | > 100 | > 100 | 25.8 | 69 | 69.7 | 78.2 | 78.8 | 43 |
| COc1ccc(-c2c(=O)[nH]n3c(=S)nc(-c4ccccc4)[nH]c23)cc1OC | 33.1 | 38 | 83.8 | 39.8 | 40.7 | 32.4 | 33.4 | 37.6 | 60.8 | 95 | 30.1 | 48.8 | 52.3 | 35.8 | 37 | 40.7 | 39.3 | 90.7 | 50.4 | 24.2 |
| O=C1c2ccccc2C(=O)[C@@]23O[C@@]12C1(Oc2cccc4cccc(c24)O1)[C@@H]1O[C@@H]1[C@@H]3O | > 100 | 23.4 | > 49.1 | 27.2 | 30.3 | 10.4 | 24.5 | 11.1 | 54.2 | > 29.8 | > 64.3 | 15.2 | 33.2 | 27.3 | 31.9 | 28.9 | 4.89 | 34.3 | 12.8 | > 100 |
| COc1cc(CNc2ccc3nc4n(c(=O)c3c2)CCCCC4)cc(OC)c1OC | > 100 | > 100 | > 100 | > 100 | > 100 | > 100 | > 100 | 71.6 | > 100 | > 100 | 50.8 | > 100 | > 100 | > 100 | > 100 | > 100 | > 100 | > 100 | > 100 | > 100 |
| Oc1ccccc1/C=N/Nc1nc(N/N=C/c2ccccc2O)nc(N/N=C/c2ccccc2O)n1 | > 100 | > 100 | > 100 | > 100 | > 100 | > 100 | > 100 | > 100 | > 100 | > 100 | > 100 | > 100 | > 100 | > 100 | 81.7 | > 100 | > 100 | > 100 | > 100 | > 100 |
| Cc1ccc(NC(=O)CSc2nc(C)nc3c2sc(=S)n3-c2ccccc2)cc1 | > 10 | > 10 | > 10 | > 10 | > 10 | 9.17 | > 10 | 9.55 | > 10 | > 10 | > 10 | > 10 | > 10 | > 10 | 9.04 | 9.43 | > 10 | > 10 | > 10 | > 10 |
| Cc1ccc(N=Nc2ccc(O)c(CN(C)C)c2)cc1C | 47.4 | 81.1 | > 100 | 34.6 | 34.8 | 57.8 | 61.5 | > 100 | 61.8 | 43.5 | 28.4 | 38.5 | 95.8 | 45.6 | > 100 | > 100 | 26.1 | > 100 | > 100 | > 100 |
| COC(=O)c1sc2ncc3c(c2c1N)CCCCCC3 | > 100 | > 100 | > 100 | > 100 | > 100 | > 100 | > 100 | > 100 | > 100 | > 100 | > 100 | > 100 | > 100 | > 100 | > 100 | > 100 |  | > 100 | > 100 | > 100 |
| Oc1cc(Br)cc2cccnc12 | 24.3 | > 37.7 | 16.9 | 7.81 | 47 | 30.4 | 9.84 | 98 | 16.2 | 8.08 | 15.1 | 35 | > 100 | > 100 | 38 | 58 | 0.82 | > 100 | > 35.4 | 5.92 |
| COc1cc(C2c3cc(O)c(OC)cc3C3OCC2C3CO)ccc1O (stereo not given) | > 100 | > 100 | > 100 | > 100 | > 100 | > 100 | > 100 | > 100 | > 100 | > 100 | > 100 | > 100 | > 100 | > 100 | > 100 | > 100 | > 100 | > 100 |  | > 100 |
| C=C(C)C1Cc2c(cc(O)c3c(=O)c4c(oc23)C(O)Oc2cc(OC)c(OC)cc2-4)O1 (stereo not given) | > 10 | > 10 | > 10 | > 10 | > 10 | > 10 | > 10 | > 10 | > 10 | > 10 |  | > 10 | > 10 | > 10 | > 10 | > 10 | > 10 | > 10 | > 10 | > 10 |
| CCCCCCCCCc1cc(-c2ccc(C=O)s2)sc1-c1ccc(C=O)s1 | 3.12 | 25 | > 100 | 23.7 | > 100 | 35.4 | 10.5 | > 93.6 | > 100 | > 38 | 34.6 | > 100 | > 100 | > 100 | 75.8 | 9.94 | 51.1 | > 100 | > 59 | 26.9 |
| CC(C)(C)c1cc(C2NCCO2)cc(C(C)(C)C)c1O (stereo not given) | > 100 |  | > 100 | > 100 | > 100 | 37.8 | > 100 | > 100 | > 100 | > 100 | > 100 | > 100 | > 100 | > 100 | > 100 | > 100 | > 100 | > 100 | > 100 | > 100 |
| COc1cc(/C=C2\C[C@H]3[C@@H]4CC=C5C=C(N6CCCC6)CC[C@]5(C)[C@H]4CC[C@]3(C)C2=O)cc(OC)c1OC | 21 | 5.37 | > 41.6 | 5.46 | 5.61 | 4.04 | > 28 | 5.82 | 16.5 | > 100 | > 27.9 | 8.67 | 12.8 | 4.37 | 5.67 | 34.3 | 17.8 | 15.2 | 6.1 | > 100 |
| COc1c(C)c2c(c(=O)c3c(C)cccc3n2C)c2c1c(=O)c1c(C)cccc1n2C | > 10 | > 10 |  | > 10 | > 10 | > 10 | > 10 | > 10 | > 10 | > 10 | > 10 | > 10 | > 10 | > 10 | > 10 | > 10 | > 10 | > 10 | > 10 | > 10 |
| CN(C)c1ccc(/C=c2/c3ccccc3n3nc4ccccc4c23)cc1 | 67 | > 100 | > 100 | > 100 | > 100 | 66.8 | > 100 | 71.5 | > 100 | > 100 | 73.5 | > 100 | > 100 | > 100 | 90.7 |  | > 100 | > 100 | > 100 | 25.1 |
| COC(=O)c1ccccc1CC1Cc2ccc3c(c2C1)CCC3 (stereo not given) | > 100 | > 100 | > 100 | > 100 | 38.6 | 52.9 | 53.9 | > 100 | 48.8 | > 100 | 43.8 | 96.8 | > 100 | 92.1 | 52.5 | > 100 | 32.1 | > 100 | > 100 | 27.1 |
| COc1cc(OC)c2c(=O)cc(-c3ccccc3F)[nH]c2c1 | > 100 | > 100 | > 100 | > 100 | > 100 | > 100 | > 100 | > 100 | > 100 | > 100 | > 100 | > 100 | > 100 | > 100 | > 100 | > 100 | > 100 | > 100 | > 100 | > 100 |
| CCOP(=O)(CCCC(O)CNc1cc(Cl)nc(N)n1)OCC (stereo not given) | > 100 |  | > 100 | > 100 | > 100 | > 100 | > 100 | > 100 | > 100 | > 100 | > 100 | > 100 | > 100 | > 100 | > 100 | > 100 | > 100 | > 100 | > 100 | > 100 |
